This is an account of results in patent publication EP4800036A1, “ANTIBODY OR TROP2 ANTIGEN BINDING FRAGMENT BINDING TO TROP2, ANTI-TROP2 CAR, AND USE” (priority 2023, dated 2025).

In assay [1] the test system is NSCLC. The following applies: 44 patients with NSCLC; cited from earlier work.
The test system of assay [2] is advanced NSCLC. The following applies: patients with advanced NSCLC; cited from earlier work.
Assay [3] deals with triple-negative breast cancer. The following applies: third-line treatment; cited from earlier work.
For assay [4], the system named is small cell lung cancer. Particulars: 50 patients with small cell lung cancer; cited from earlier work.
Assay [5] has as its target T1, Human TROP-2/TACSTD2 Protein, His Tag (ACRO, catalog No. TR2-H5223) (human, UniProt P09758 27-274).
T1 construct: extracellular domain; Bought protein; also called Trop2-His; Trop2-His antigen; not shown: His tag
T1 sequence (looked up): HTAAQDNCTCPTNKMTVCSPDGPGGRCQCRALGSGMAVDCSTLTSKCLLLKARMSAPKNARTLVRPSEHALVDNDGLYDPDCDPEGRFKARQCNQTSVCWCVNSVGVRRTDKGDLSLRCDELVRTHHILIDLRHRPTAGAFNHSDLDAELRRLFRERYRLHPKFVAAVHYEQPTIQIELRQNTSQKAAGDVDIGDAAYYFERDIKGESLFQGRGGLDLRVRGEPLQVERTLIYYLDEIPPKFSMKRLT
Briefly: phage ELISA, Trop2-His coated at 1 µg/mL, anti-M13-HRP detection. Background: An ELISA detects its analyte on a solid surface through an enzyme-linked reagent.

Take Sacituzumab govitecan [IMMU-132]: in assay [1], the PFS is reported as 5.2 months, the “clinical benefit rate (complete response + partial response + stable disease ≥ 4 months)” value was 43% and the “objective response rate (ORR)” value is on record as 19%. In assay [2], the overall survival is given as 9.5 months. Moreover, in assay [3], the disease control rate is on record as 45%, the “patients who experienced tumor shrinkage at least once” value is 74% and the “progression-free survival (PFS) rate” value was 33.3%. Moreover, in assay [4], the ORR was 14%, the PFS is given as 3.7 months and the “clinical benefit rate (complete response + partial response + stable disease ≥ 4 months)” value is 34%.

B1: anti-Trop2 positive clone 3 (T3), phage scFv (scFv)
scFv: DIQMTQSPSTLSASVGDRVTITCRASQSISSWLAWYQQKPGKAPKLLIYKASSLESGVPPRFSGSGSGAEFTLTISSLQPDDFATYYCQQYNSYPLTFGGGTKVEVKGGGGSGGGGSGGGGSEVQLVQSGGGLVQPGGSLRLSCEDSGFTFSSYWMSWVRQAPGKGLEWVSSISSSSSYIYYADSVKGRFTISRDNAKNSLYLQMNSLRGEDTAVYYCAREQSSSGFDYWGQGTLVTVSS
notes: also called T3 clone; T3 anti-Trop2 scFv
On to B1, for which the binding result in assay [5] is given as “binds”.
